Like-named read-outs stand apart in the source and are kept apart here. Numbered stars: 1 amine (or outer) side, 2 acyl side, 3 side chain; on linkers, the order of the positions; unused ones are H or OH. Square brackets hold non-standard residues; d marks the D form. Side chains are listed from the residue outwards. Peptide text beside a SMILES is read from it. * marks the point of attachment. γGlu = O=C(O)[C@H](CCC(=O)[*:2])N[*:1]; Palmitoyl = CCCCCCCCCCCCCCCC(=O)*; αMeF = C[C@](N)(Cc1ccccc1)C(=O)O; αMeK = C[C@](N)(CCCCN)C(=O)O; Lauroyl = CCCCCCCCCCCC(=O)*; αMeS = C[C@](N)(CO)C(=O)O; AEEA = NCCOCCOCC(=O)O; Aib = CC(C)(N)C(=O)O
Assays:
Assay type in all cases: cell-based
[1] = molecular target: T1, human GLP-1 receptor (GLP-1R) (Homo sapiens, UniProt P43220); assay: cAMP assay, human GLP-1R cells
T1 construct: expressed in transfected cells
Summary of the method: (§1)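 Peptide-stimulated cAMP measured by two-step HTRF after a 30 min room-temperature incubation with receptor-expressing cells (hGLP-1R, hGIPR at 1×10^5 cells/ml; hGCGR at 2×10^5 cells/ml). Duplicate dilutions; EC50 from 4-parameter logistic fit of % Delta F.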

[2] = molecular target: T2, human glucagon receptor (GCGR) (Homo sapiens, UniProt P47871); assay: cAMP assay, human GCGR cells
T2 construct: expressed in transfected cells
Summary of the method: as §1

[3] = molecular target: T3, human glucose-dependent insulinotropic peptide receptor (GIPR) (Homo sapiens, UniProt P48546); assay: cAMP assay, human GIPR cells
T3 construct: expressed in transfected cells
T3 sequence (P48546 22-466): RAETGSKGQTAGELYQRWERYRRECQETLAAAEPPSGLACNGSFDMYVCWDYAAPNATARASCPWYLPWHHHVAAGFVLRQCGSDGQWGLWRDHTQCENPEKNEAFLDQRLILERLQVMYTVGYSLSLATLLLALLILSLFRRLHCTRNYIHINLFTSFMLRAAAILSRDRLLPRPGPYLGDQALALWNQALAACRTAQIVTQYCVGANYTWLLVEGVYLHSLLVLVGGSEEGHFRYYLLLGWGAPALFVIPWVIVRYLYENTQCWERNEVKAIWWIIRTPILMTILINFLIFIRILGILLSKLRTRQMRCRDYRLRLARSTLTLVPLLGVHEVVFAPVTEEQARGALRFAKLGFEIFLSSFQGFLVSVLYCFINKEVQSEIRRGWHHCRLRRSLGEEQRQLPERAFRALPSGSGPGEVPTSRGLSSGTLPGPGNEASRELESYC
Summary of the method: as §1

GLP-1R (INS1e assay) = molecular target: T4, GLP-1R (INS1e assay) (Rattus norvegicus, UniProt P32301); assay: INS1e assay, cAMP activity at GLP-1R
T4 construct: endogenous in cells; host or cells: INS-1E cells
T4 sequence (P32301 22-463): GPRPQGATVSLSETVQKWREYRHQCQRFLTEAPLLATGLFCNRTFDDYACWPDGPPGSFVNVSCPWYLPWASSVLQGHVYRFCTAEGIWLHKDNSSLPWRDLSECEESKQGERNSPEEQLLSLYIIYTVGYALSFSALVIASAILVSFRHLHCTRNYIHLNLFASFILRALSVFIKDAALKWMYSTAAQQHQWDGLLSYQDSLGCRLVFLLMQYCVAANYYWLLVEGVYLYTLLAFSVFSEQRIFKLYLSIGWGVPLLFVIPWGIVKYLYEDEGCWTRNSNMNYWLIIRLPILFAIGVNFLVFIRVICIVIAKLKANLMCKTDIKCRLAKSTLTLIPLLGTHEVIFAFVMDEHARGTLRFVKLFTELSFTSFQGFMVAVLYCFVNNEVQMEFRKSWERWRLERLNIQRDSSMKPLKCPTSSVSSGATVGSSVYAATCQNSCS
Summary of the method: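 It pairs cAMP-d2 acceptor with anti-cAMP cryptate donor, both prepared 1/20 in conjugate/lysis buffer, applied as a two-step protocol.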

[4] = cAMP assay, first determination (n1), read-out: Primary assay EC50 GLP-1R n1
[5] = cAMP assay, second determination (n2), read-out: Primary assay EC50 GLP-1R n2
[6] = mean of n1 and n2, read-out: Mean pM GLP-1R
[7] = cAMP assay, first determination (n1), read-out: Primary assay EC50 Gluc-R (n1)
[8] = cAMP assay, second determination (n2), read-out: Primary assay EC50 Gluc-R (n2)
[9] = cAMP assay, first determination (n1), read-out: Primary assay EC50 GIP-R (n1)
[10] = cAMP assay, second determination (n2), read-out: Primary assay EC50 GIP-R (n2)
[11] = mono-lipidated peptides, mean of n1 and n2, read-out: INS1e assay EC50 Mean pM GLP-1R
[12] = mono-lipidated peptides, replicate n1, read-out: INS1e assay EC50 GLP-1R n1
[13] = mono-lipidated peptides, replicate n2, read-out: INS1e assay EC50 GLP-1R n2

T1 sequence (P43220 24-463): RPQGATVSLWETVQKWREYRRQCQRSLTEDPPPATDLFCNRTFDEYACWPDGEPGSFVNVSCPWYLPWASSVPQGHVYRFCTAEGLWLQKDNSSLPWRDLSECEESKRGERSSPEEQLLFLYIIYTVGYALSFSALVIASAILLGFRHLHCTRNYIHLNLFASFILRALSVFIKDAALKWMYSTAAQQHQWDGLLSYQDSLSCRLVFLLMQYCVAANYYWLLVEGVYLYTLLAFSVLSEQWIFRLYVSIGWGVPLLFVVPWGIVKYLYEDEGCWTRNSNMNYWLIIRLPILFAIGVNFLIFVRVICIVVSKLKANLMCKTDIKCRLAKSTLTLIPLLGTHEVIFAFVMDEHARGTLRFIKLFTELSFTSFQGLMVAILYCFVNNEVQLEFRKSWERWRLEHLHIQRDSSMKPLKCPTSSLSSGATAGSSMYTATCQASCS
T2 sequence (P47871 26-477): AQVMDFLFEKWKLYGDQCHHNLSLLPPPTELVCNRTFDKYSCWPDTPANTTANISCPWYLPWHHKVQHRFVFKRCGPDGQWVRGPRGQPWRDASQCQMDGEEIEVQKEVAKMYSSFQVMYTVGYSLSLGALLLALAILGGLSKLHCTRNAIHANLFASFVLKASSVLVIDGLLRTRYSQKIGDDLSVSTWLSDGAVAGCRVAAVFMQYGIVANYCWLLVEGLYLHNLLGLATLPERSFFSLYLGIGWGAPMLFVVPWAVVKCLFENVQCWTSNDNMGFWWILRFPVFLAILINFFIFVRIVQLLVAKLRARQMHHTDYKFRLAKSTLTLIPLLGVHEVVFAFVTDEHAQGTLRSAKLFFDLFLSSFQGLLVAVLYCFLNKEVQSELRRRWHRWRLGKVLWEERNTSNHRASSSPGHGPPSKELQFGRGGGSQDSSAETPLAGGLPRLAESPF

| SMILES | EC50 [1, 4] [pM] | EC50 [1, 5] [pM] | EC50 [1, 6] [pM] | EC50 [2, 7] [nM] | EC50 [2, 8] [nM] | EC50 [3, 9] [nM] | EC50 [3, 10] [nM] | EC50 (GLP-1R (INS1e assay); [11]) [pM] | EC50 (GLP-1R (INS1e assay); [12]) [pM] | EC50 (GLP-1R (INS1e assay); [13]) [pM] | EC50 ([1]; tris-lipidated peptides, mean of n1 and n2, read-out: Primary assay EC50 Mean pM GLP-1R) [pM] | EC50 ([1]; tris-lipidated peptides, replicate n1, read-out: Primary assay EC50 GLP-1R n1) [pM] | EC50 ([1]; tris-lipidated peptides, replicate n2, read-out: Primary assay EC50 GLP-1R n2) [pM] | EC50 ([2]; tris-lipidated peptides, second replicate, read-out: Primary assay EC50 Gluc-R (n2)) [nM] | EC50 ([3]; tris-lipidated peptides, first replicate, read-out: Primary assay EC50 GIP-R (n1)) [nM] | EC50 (GLP-1R (INS1e assay); tris-lipidated peptides, mean of n1 and n2, read-out: INS1e assay EC50 Mean pM GLP-1R) [pM] | EC50 (GLP-1R (INS1e assay); tris-lipidated peptides, replicate n1, read-out: INS1e assay EC50 GLP-1R n1) [pM] | EC50 (GLP-1R (INS1e assay); tris-lipidated peptides, replicate n2, read-out: INS1e assay EC50 GLP-1R n2) [pM] |
| --- | --- | --- | --- | --- | --- | --- | --- | --- | --- | --- | --- | --- | --- | --- | --- | --- | --- | --- |
| CCCCCCCCCCCCCCCC(=O)N[C@@H](CCC(=O)NCCCC[C@H](NC(=O)[C@@H](NC(=O)[C@](C)(Cc1ccccc1)NC(=O)[C@H](CCC(=O)O)NC(=O)[C@](C)(CCCCN)NC(=O)[C@H](C)NC(=O)[C@H](C)NC(=O)[C@H](CCC(=O)O)NC(=O)CNC(=O)[C@H](CCC(=O)O)NC(=O)[C@H](CC(C)C)NC(=O)[C@](C)(Cc1ccccc1)NC(=O)[C@H](CO)NC(=O)[C@](C)(CO)NC(=O)[C@@H](NC(=O)[C@H](CC(=O)O)NC(=O)[C@H](CO)NC(=O)[C@@H](NC(=O)[C@](C)(Cc1ccccc1)NC(=O)[C@H](CO)NC(=O)CNC(=O)[C@H](CCC(=O)O)NC(=O)C(C)(C)NC(=O)[C@@H](N)Cc1c[nH]cn1)[C@@H](C)O)C(C)C)[C@@H](C)CC)C(=O)N[C@@](C)(Cc1ccccc1)C(=O)N[C@H](C(=O)N[C@H](C(=O)N[C@@](C)(CCCCN)C(=O)NCC(=O)NCC(N)=O)C(C)C)C(C)C)C(=O)O [compound 76] (H-H[Aib]EGS[αMeF]TSDV[αMeS]S[αMeF]LEGEAA[αMeK]E[αMeF]IK([γGlu-Palmitoyl])[αMeF]VV[αMeK]GG-NH2; N-terminus assumed) | 8.4 | 6 | 7.2 | ≥ 27 | ≥ 27 | ≥ 27 | ≥ 27 | 429 | 326 | 531 | – | – | – | – | – | – | – | – |
| CCCCCCCCCCCCCCCC(=O)N[C@@H](CCC(=O)NCCCC[C@H](NC(=O)[C@](C)(Cc1ccccc1)NC(=O)[C@H](C)NC(=O)[C@@H](NC(=O)[C@](C)(Cc1ccccc1)NC(=O)[C@H](CCC(=O)O)NC(=O)[C@](C)(CCCCN)NC(=O)[C@H](C)NC(=O)[C@H](C)NC(=O)[C@H](CCC(=O)O)NC(=O)CNC(=O)[C@H](CCC(=O)O)NC(=O)[C@H](CC(C)C)NC(=O)[C@](C)(Cc1ccccc1)NC(=O)[C@H](CO)NC(=O)[C@](C)(CO)NC(=O)[C@@H](NC(=O)[C@H](CC(=O)O)NC(=O)[C@H](CO)NC(=O)[C@@H](NC(=O)[C@](C)(Cc1ccccc1)NC(=O)[C@H](CO)NC(=O)CNC(=O)[C@H](CCC(=O)O)NC(=O)C(C)(C)NC(=O)[C@@H](N)Cc1c[nH]cn1)[C@@H](C)O)C(C)C)[C@@H](C)CC)C(=O)N[C@H](C(=O)N[C@@](C)(CCCCN)C(=O)NCC(=O)NCC(N)=O)C(C)C)C(=O)O [compound 74] (H-H[Aib]EGS[αMeF]TSDV[αMeS]S[αMeF]LEGEAA[αMeK]E[αMeF]IA[αMeF]K([γGlu-Palmitoyl])V[αMeK]GG-NH2) | 2.3 | – | – | ≥ 28 | ≥ 28 | ≥ 28 | ≥ 28 | 102 | 77.4 | 127 | – | – | – | – | – | – | – | – |
| CC[C@H](C)[C@H](NC(=O)[C@](C)(Cc1ccccc1)NC(=O)[C@H](CCC(=O)O)NC(=O)[C@](C)(CCCCN)NC(=O)[C@H](C)NC(=O)[C@H](C)NC(=O)[C@H](CCC(=O)O)NC(=O)CNC(=O)[C@H](CCC(=O)O)NC(=O)[C@H](CC(C)C)NC(=O)[C@](C)(Cc1ccccc1)NC(=O)[C@H](CO)NC(=O)[C@](C)(CO)NC(=O)[C@@H](NC(=O)[C@H](CC(=O)O)NC(=O)[C@H](CO)NC(=O)[C@@H](NC(=O)[C@](C)(Cc1ccccc1)NC(=O)[C@H](CO)NC(=O)CNC(=O)[C@H](CCC(=O)O)NC(=O)C(C)(C)NC(=O)[C@@H](N)Cc1c[nH]cn1)[C@@H](C)O)C(C)C)C(=O)N[C@@H](C)C(=O)N[C@@](C)(Cc1ccccc1)C(=O)N[C@H](C(=O)N[C@H](C(=O)N[C@@H](CCCCNC(=O)COCCOCCNC(=O)COCCOCCNC(=O)CC[C@H](NC(=O)CCCCCCCCCCCCCCCCC(=O)O)C(=O)O)C(=O)NCC(=O)NCC(N)=O)C(C)C)C(C)C [compound 101] | 58 | 51.2 | 55 | ≥ 25 | ≥ 25.4 | ≥ 25 | ≥ 25.4 | 4060 | 1470 | 6650 | – | – | – | – | – | – | – | – |
| CCCCCCCCCCCC(=O)NCCCCCC(=O)NCCCCCC(=O)NCCCC[C@H](NC(=O)[C@H](C)NC(=O)[C@H](C)NC(=O)[C@H](CCC(=O)O)NC(=O)CNC(=O)[C@H](CCC(=O)O)NC(=O)[C@H](CC(C)C)NC(=O)[C@](C)(Cc1ccccc1)NC(=O)[C@H](CO)NC(=O)[C@](C)(CO)NC(=O)[C@@H](NC(=O)[C@H](CC(=O)O)NC(=O)[C@H](CO)NC(=O)[C@@H](NC(=O)[C@](C)(Cc1ccccc1)NC(=O)[C@H](CO)NC(=O)CNC(=O)[C@H](CCC(=O)O)NC(=O)C(C)(C)NC(=O)[C@@H](N)Cc1c[nH]cn1)[C@@H](C)O)C(C)C)C(=O)N[C@@H](CCC(=O)O)C(=O)N[C@@](C)(Cc1ccccc1)C(=O)N[C@H](C(=O)N[C@@H](C)C(=O)N[C@@](C)(Cc1ccccc1)C(=O)N[C@H](C(=O)N[C@H](C(=O)N[C@@](C)(CCCCN)C(=O)NCC(=O)NCC(N)=O)C(C)C)C(C)C)[C@@H](C)CC [compound 132] | 11 | 7.1 | 9 | ≥ 28 | ≥ 28 | ≥ 28 | ≥ 28 | 122 | 129 | 115 | – | – | – | – | – | – | – | – |
| CCCCCCCCCCCC(=O)N[C@@H](CCC(=O)NCCOCCOCC(=O)NCCOCCOCC(=O)NCCCC[C@H](NC(=O)[C@H](Cc1ccc(O)cc1)NC(=O)[C@H](CO)NC(=O)[C@](C)(CO)NC(=O)[C@@H](NC(=O)[C@H](CC(=O)O)NC(=O)[C@H](CO)NC(=O)[C@@H](NC(=O)[C@](C)(Cc1ccccc1)NC(=O)[C@H](CO)NC(=O)CNC(=O)[C@H](CCC(=O)O)NC(=O)C(C)(C)NC(=O)[C@@H](N)Cc1c[nH]cn1)[C@@H](C)O)C(C)C)C(=O)N[C@@H](CCC(=O)O)C(=O)NCC(=O)N[C@@H](CCC(=O)O)C(=O)N[C@@H](C)C(=O)N[C@@H](C)C(=O)N[C@@](C)(CCCCN)C(=O)N[C@@H](CCCCNC(=O)COCCOCCNC(=O)COCCOCCNC(=O)CC[C@H](NC(=O)CCCCCCCCCCC)C(=O)O)C(=O)N[C@@H](Cc1ccccc1)C(=O)N[C@H](C(=O)N[C@@H](CCCCNC(=O)COCCOCCNC(=O)COCCOCCNC(=O)CC[C@H](NC(=O)CCCCCCCCCCC)C(=O)O)C(=O)N[C@@H](Cc1ccccc1)C(=O)N[C@H](C(=O)N[C@H](C(=O)N[C@@H](CCC(=O)O)C(=O)NCC(=O)NCC(N)=O)C(C)C)C(C)C)[C@@H](C)CC)C(=O)O [compound 454] (H-H[Aib]EGS[αMeF]TSDV[αMeS]SYK([AEEA-AEEA-γGlu-Lauroyl])EGEAA[αMeK]K([AEEA-AEEA-γGlu-Lauroyl])FIK([AEEA-AEEA-γGlu-Lauroyl])FVVEGG-NH2) | – | – | – | – | – | – | – | – | – | – | 43.7 | 22.1 | 65.2 | 19.7 | 19.7 | 5550 | 4100 | 6990 |

Source: patent US10414811B2, “Protease-resistant lipidated GLP-1 analogs” (MEDIMMUNE LIMITED, priority 2015, dated 2019)
